{"source": "patent US20090175924A1", "about": "“COATED STENT” (BIONERIS AB, priority 2002, published 2009)", "key": {"mice": {"tested_on": "mice", "assay_type": "in vivo", "details": "intravenous", "procedure": "A method described by S. Irwin (Psychopharmacologica, 1968, 13, 222) was used to detect general physiological, behavioural and toxic effects of a series of compounds. The tested compounds were administered intra veneously to mice (3 animals per compound and dose) and the behavioural modification and neurotoxicity symptoms such as mortality, sedation, excitation, aggressiveness, straub, writhes, convulsions, tremor, exophtalamos, salivation, lacrimation, piloerection, defecation, fear, traction, reactivity to touch, loss of righting reflex, sleep, motor incoordination, muscle tone, stereotypies, catalepsy, grasping, ptosis, difficulty in respiration, corneal reflex, analgesia and gait were recorded compared to a control group, Furthermore, rectal temperature and pupil diameter were recorded."}, "[1]": {"tested_on": "Human pulmonary artery smooth muscle cells (HPASMCs)", "assay": "FGF2-stimulated proliferation of smooth muscle cells (3H-thymidine incorporation)", "assay_type": "cell-based", "details": "1 nM FGF2, 24 hours", "procedure": "Vascular smooth muscle cell proliferation contributes to restenosis after coronary angioplasty. Human pulmonary artery smooth muscle cells (HPASMCs) were maintained in Medium 231 supplemented with Smooth muscle Growth Supplement. The cells, medium and supplement were obtained from Caascade Biologics Inc., Portland, Oreg., USA.\nThe cells were grown as monolayer culture in 100-mm diameter plastic tissue culture dishes (Nunc, Roskilde, Denmark) with 10 ml medium in 37° C. in a humidified atmosphere of 95% air and 5% CO2 and subcultured at 4- to 6-day intervals. For measurement of cell growth, cells were seeded at density 5.0*10^3/well in 96 well dishes in DMEM+0.2% FBS for 3 days. Culture medium was then removed and cells were seeded in DMEM+0.2% FBS with 1 nM of basic fibroblast growth factor (FGF2). The addition of FGF2 induces cell proliferation of the HPASMCs. The FGF2 used was a recombinant human substance from Boehringer Mannheim Biochemica, Espoo, Finland. Various concentrations of D-myo-inositol-1,2,6-trisphosphate (IP3) were added and the number of parallel wells in each treatment was four. The proliferation of cells was analysed after 24 hours of incubation by labelling each well with 0.2 μCi of ^3H-thymidine for two hours. After that the cells were trypsinated and harvested on a filter. A Melt-on scintillator (Meltilex™ A; Wallac, Turku, Finland) was allowed to melt on the filter. The radioactivity of the sheets was counted on a liquid scintillator counter (1450 Microbeta Wallac, Turku, Finland).\nStimulation of proliferation was inhibited by the addition of IP3 with the following result:\nIn a procedure similar to the one described in Example 1, D-3,4,5-tri-O-(phenylcarbamoyl) myo-inositol-1,2,6-trisphosphate (PP 11-201) was added with the result shown below: […]"}, "Wistar rats": {"tested_on": "Wistar rats", "assay": "Neointima formation after balloon catheter injury of the carotid artery in rats", "assay_type": "in vivo, rat", "details": "for elasticity of the vessel walls (microscopic investigation): compared to the control group; for Neointima formation / Reduction (%) of neointima formation: rat carotid, 14 days post-operatively, 1 mg/kg/hr; for Neointima formation: subcutaneous osmotic minipumps; for Reduction (%) of neointima formation: versus saline control, osmotic minipumps", "procedure": "The effects on neointima formation was assessed after inducing vessel injury in rats with a balloon catheter. Neointima formation is an important part in the process of restenosis. Adult mate Wistar rats (250-260 g) were housed under standard conditions and were fed with commercial rat chow and water ad libitum. During the experiment D-myo-inositol-1,2,6-trisphosphate (IP3) was administered via subcutaneously operated osmotic minipumps with a dose level of 1 mg/kg/hr. A control group received saline solution by osmotic minipumps. The animals were anaesthetised with an intraperitoneal injection of ketamine, 100 mg/kg, (MTC Pharmaceuticals, Cambridge, Ontario, Canada) and xylazine, 10 mg/kg (Bayer Inc., Etobicoke, Ontario, Canada). Using a dissecting microscope, the left carotid artery was exposed on the ventral side of the neck via a midline incision. The bifurcation of the carotid artery was located and two ligatures were placed around the external carotid artery, which was then tied off with the distal ligature. After temporarily occluding the internal carotid artery with a vascular clamp, a small incision was made between the two ligatures placed around the external carotid artery to introduce the endothelial denudation device, an inflated […] Fogarty embolectomy catheter (Baxter Healthcare, Buckinghamshire, UK). Each animal was de-endothelialised by three passages of the catheter and the carotid artery was tied off proximal to the incision hole. The clamp was removed and the pulse of the carotid artery was rechecked. The skin incision was closed with a single suture. 14 days post-operatively, the animals were sedated. An abdominal incision was made to access the abdominal aorta for insertion of a cannula connected to a perfusion apparatus. The animals where killed by an overdose of anaestetic and then perfused with heparinised phosphate buffered saline (pH 7.4) at a rate of 100 ml/min per kg body weight and a pressure of 120 mm Hg. After replacement of saline, 4% paraformaldehyde in isotonic saline was introduced at the same flow rate. After fixation in situ, the carotids were dissected free. Three mid-carotid segments, approximately 10 mm long were rinsed and placed in 4% parafomaldehyde for another 16 hours before embedding and freezing in Tissue-Tek OCT media (Miles Inc., Elkhart, Ind., USA). Frozen sections were stained with Movat's pentachrome and immunohistochemistry was performed using antibodies in order to examine the process of restenosis by measurement of the neointima formation.\nIn a procedure similar to the one described in Example 3, D-3,4,5-tri-O-(phenylcarbamoyl)myo-inositol-1,2,6-trisphosphate (PP 11-201) was added with the result shown below: […]"}}}
{"compound": "1,2-O-ethylene-β-D-fructopyranoside-2,3,4-trisphosphate", "values": [{"measurement": "Dose where effects are observed", "setting": "mice", "value": ">512", "unit": "mg/kg"}]}
{"compound": "O=P(O)(O)OC1CN(CCc2ccccc2)CC(OP(=O)(O)O)C1OP(=O)(O)O", "note": "(centres unmarked) [1,5-dideoxy-1,5-imino-N-(2-phenylethyl)arabinitol-2,3,4-trisphosphate]", "values": [{"measurement": "Dose where effects are observed", "setting": "mice", "value": ">512", "unit": "mg/kg"}]}
{"compound": "CCCCC(=O)OC1C(OC(=O)CCCC)C(OP(=O)(O)O)C(OP(=O)(O)O)C(OP(=O)(O)O)C1OC(=O)CCCC", "note": "[D-3,4,5-tri-O-pentanoyl-myo-inositol-1,2,6-trisphosphate]", "values": [{"measurement": "Dose where effects are observed", "setting": "mice", "value": 128, "unit": "mg/kg"}]}
{"compound": "CCC(=O)OC1C(OC(=O)CC)C(OP(=O)(O)O)C(OP(=O)(O)O)C(OP(=O)(O)O)C1OC(=O)CC", "note": "[D-3,4,5-tri-O-propanoyl-myo-inositol-1,2,6-trisphosphate]", "values": [{"measurement": "Dose where effects are observed", "setting": "mice", "value": 256, "unit": "mg/kg"}]}
{"compound": "O=C(O)CP(=O)(O)O[C@@H]1[C@H](OP(=O)(O)CC(=O)O)[C@H](O)[C@@H](O)[C@H](O)[C@H]1OP(=O)(O)CC(=O)O", "note": "[D-myo-inositol-1,2,6-tris(carboxymetylphosphonate)]", "values": [{"measurement": "Dose where effects are observed", "setting": "mice", "value": ">512", "unit": "mg/kg"}]}
{"compound": "O=P(O)(O)O[C@@H]1[C@H](OP(=O)(O)O)[C@H](O)[C@@H](O)[C@H](O)[C@H]1OP(=O)(O)O", "note": "[IP3, D-myo-inositol-1,2,6-trisphosphate]", "values": [{"measurement": "inhibition (%) of FGF2-stimulated proliferation", "setting": "[1]; 1 μM", "value": 61, "unit": "%"}, {"measurement": "inhibition (%) of FGF2-stimulated proliferation", "setting": "[1]; 10 μM", "value": 44, "unit": "%"}, {"measurement": "inhibition (%) of FGF2-stimulated proliferation", "setting": "[1]; 100 μM", "value": 68, "unit": "%"}, {"measurement": "elasticity of the vessel walls (microscopic investigation)", "setting": "Wistar rats", "value": "improved"}, {"measurement": "Neointima formation", "setting": "Wistar rats", "value": 0.48, "unit": "mm^2"}, {"measurement": "Reduction (%) of neointima formation", "setting": "Wistar rats", "value": 57, "unit": "%"}, {"measurement": "Dose where effects are observed", "setting": "mice", "value": ">512", "unit": "mg/kg"}]}
{"compound": "O=C(Nc1ccccc1)O[C@@H]1[C@@H](OC(=O)Nc2ccccc2)[C@@H](OP(=O)(O)O)[C@@H](OP(=O)(O)O)[C@H](OP(=O)(O)O)[C@H]1OC(=O)Nc1ccccc1", "note": "[PP 11-201, D-3,4,5-tri-O-(phenylcarbamoyl)myo-inositol-1,2,6-trisphosphate]", "values": [{"measurement": "inhibition (%) of FGF2-stimulated proliferation", "setting": "[1]; 0.1 μM", "value": 49, "unit": "%"}, {"measurement": "inhibition (%) of FGF2-stimulated proliferation", "setting": "[1]; 1 μM", "value": 61, "unit": "%"}, {"measurement": "inhibition (%) of FGF2-stimulated proliferation", "setting": "[1]; 10 μM", "value": 70, "unit": "%"}, {"measurement": "elasticity of the vessel walls (microscopic investigation)", "setting": "Wistar rats", "value": "improved"}, {"measurement": "Neointima formation", "setting": "Wistar rats", "value": 0.43, "unit": "mm^2"}, {"measurement": "Reduction (%) of neointima formation", "setting": "Wistar rats", "value": 62, "unit": "%"}]}
{"compound": "CCCCOC[C@H]1O[C@H](OC)[C@H](OP(=O)(O)O)[C@@H](OP(=O)(O)O)[C@@H]1OP(=O)(O)O", "note": "[methyl-6-O-butyl-α-D-glycopyranoside-2,3,4-trisphosphate]", "values": [{"measurement": "Dose where effects are observed", "setting": "mice", "value": 256, "unit": "mg/kg"}]}
{"compound": "methyl-6-O-butyl-α-D-mannopyranoside-2,3,4-trisphosphate", "values": [{"measurement": "Dose where effects are observed", "setting": "mice", "value": ">512", "unit": "mg/kg"}]}
